# From US10138255B2, “Piperazine derivatives as HIV protease inhibitors” (Merck Sharp & Dohme Corp., priority 2014, dated 2018)
# System: HIV-1 (H9IIIB strain)
# Experiment: Cell-Based HIV Infection Assay Using a Reporter (MT4-GFP cells)
# Conditions: Human immunodeficiency virus 1, inflection point (IP) of viral growth inhibition; MT4-GFP cells infected with HIV-1 H9IIIB; 50% normal human serum; mean of at least two independent experiments; read-out: Cell Based IP (50% NHS)
# How it was run: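 MT4-GFP cells (HIV LTR-driven GFP) bulk-infected with HIV-1 H9IIIB at low MOI for 24 h, washed, then exposed to compounds in RPMI plus 50% normal human serum, 0.4% DMSO. Infected cells counted at 24 and 48 h; R0 = 48 h/24 h ratio, inhibition normalised to DMSO and triple-drug control; IP from 4-parameter fit.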
row,SMILES,EC50
1,"COC(=O)N[C@H](C(=O)Nc1cccc(F)c1CC[C@H]1CN[C@@H]2CCCS(=O)(=O)N1C2)[C@@H](c1ccc(F)cc1)[C@H]1C[C@@H](OC)C1 [Example 105, methyl [(1S)-2-[(2-{2-[(6R,9S)-2,2-dioxido-2-thia-1,7-diazabicyclo[4.3.1]dec-9-yl]ethyl}-3-fluorophenyl)amino]-1-{(R)-(4-fluorophenyl)[(1s,3S)-3-methoxycyclobutyl]methyl}-2-oxoethyl]carbamate]",33 nM
2,"CO[C@H]1C[C@@H]([C@H](c2ccc(F)cc2)[C@H](N)C(=O)Nc2cccc(F)c2CC[C@H]2CN[C@@H]3CCCS(=O)(=O)N2C3)C1 [Example 106, (βR)-N-(2-{2-[(6R,9S)-2,2-dioxido-2-thia-1,7-diazabicyclo[4.3.1]dec-9-yl]ethyl}-3-fluorophenyl)-4-fluoro-β-[(1s,3S)-3-methoxycyclobutyl]-L-phenylalaninamide]",110 nM
3,"C[C@@H]1CC([C@H](c2ccc(F)cc2)[C@H](N)C(=O)N[C@H]2CCC[C@@H]2CC[C@H]2CN[C@@H]3CCCS(=O)(=O)N2C3)C[C@H](C)O1 (stereo partly drawn) [Example 107, (βR)-β-[(2R,4s,6S)-2,6-dimethyltetrahydro-2H-pyran-4-yl]-N-[(1S,2R)-2-{2-[(6R,9S)-2,2-dioxido-2-thia-1,7-diazabicyclo[4.3.1]dec-9-yl]ethyl}cyclopentyl]-4-fluoro-L-phenylalaninamide]",84 nM
4,"COC(=O)N[C@H](C(=O)N[C@H]1CCC[C@@H]1CC[C@H]1CN[C@@H]2CCCS(=O)(=O)N1C2)[C@@H](c1ccc(F)cc1)C1C[C@@H](C)O[C@@H](C)C1 (stereo partly drawn) [Example 108, methyl [(1S,2R)-2-[(2R,4s,6S)-2,6-dimethyltetrahydro-2H-pyran-4-yl]-1-{[(1S,2R)-2-{2-[(6R,9S)-2,2-dioxido-2-thia-1,7-diazabicyclo[4.3.1]dec-9-yl]ethyl}cyclopentyl]carbamoyl}-2-(4-fluorophenyl)ethyl]carbamate]",50 nM
5,"COC(=O)N[C@H](C(=O)Nc1cccc(F)c1CC[C@H]1CN[C@@H]2CCC(C)S(=O)(=O)N1C2)[C@@H](c1ccc(F)cc1)C1C[C@@H](C)O[C@@H](C)C1 (stereo partly drawn) [Example 109, methyl [(1S,2R)-2-[(2R,6S)-2,6-dimethyltetrahydro-2H-pyran-4-yl]-1-[(3-fluoro-2-{2-[(6R,9S)-3-methyl-2,2-dioxido-2-thia-1,7-diazabicyclo[4.3.1]dec-9-yl]ethyl}phenyl)carbamoyl]-2-(4-fluorophenyl)ethyl]carbamate]",38 nM
6,"CC1CC[C@@H]2CN([C@@H](CCc3c(F)cccc3NC(=O)[C@@H](N)[C@@H](c3ccc(F)cc3)C3C[C@@H](C)O[C@@H](C)C3)CN2)S1(=O)=O (stereo partly drawn) [Example 110, (βR)-β-[(2R,6S)-2,6-dimethyltetrahydro-2H-pyran-4-yl]-4-fluoro-N-(3-fluoro-2-{2-[(6R,9S)-3-methyl-2,2-dioxido-2-thia-1,7-diazabicyclo[4.3.1]dec-9-yl]ethyl}phenyl)-L-phenylalaninamide]",55 nM
7,"COC(=O)N[C@H](C(=O)Nc1cccc(F)c1CC[C@H]1CN[C@@H]2CCCS(=O)(=O)N1C2)[C@@H](c1ccc(F)cc1)C1C[C@@H](C)O[C@H](C)C1 (stereo partly drawn) [Example 112, methyl [(1S,2R)-2-[(2R,6R)-2,6-dimethyltetrahydro-2H-pyran-4-yl]-1-[(2-{2-[(6R,9S)-2,2-dioxido-2-thia-1,7-diazabicyclo[4.3.1]dec-9-yl]ethyl}-3-fluorophenyl)carbamoyl]-2-(4-fluorophenyl)ethyl]carbamate]",42 nM
8,"C[C@@H]1CC([C@H](c2ccc(F)cc2)[C@H](N)C(=O)Nc2cccc(F)c2CC[C@H]2CN[C@@H]3CCCS(=O)(=O)N2C3)C[C@@H](C)O1 (stereo partly drawn) [Example 113, (βR)-β-[(2R,6R)-2,6-dimethyltetrahydro-2H-pyran-4-yl]-N-(2-{2-[(6R,9S)-2,2-dioxido-2-thia-1,7-diazabicyclo[4.3.1]dec-9-yl]ethyl}-3-fluorophenyl)-4-fluoro-L-phenylalaninamide]",22 nM
9,"COC(=O)N[C@H](C(=O)Nc1cccc(F)c1CCC1CNC2CCCS(=O)(=O)N1C2)[C@@H](c1ccc(Cl)cc1)c1cncc(C(C)(F)F)c1 (stereo partly drawn) [Example 114, methyl [(1S,2S)-2-(4-chlorophenyl)-2-[5-(1,1-difluoroethyl)pyridin-3-yl]-1-({2-[2-(2,2-dioxido-2-thia-1,7-diazabicyclo[4.3.1]dec-9-yl)ethyl]-3-fluorophenyl}carbamoyl)ethyl]carbamate]",22 nM
10,"COC(=O)N[C@H](C(=O)Nc1cccc(F)c1CCC1CNC2CCCS(=O)(=O)N1C2)[C@@H](c1ccc(Cl)cc1)c1ccc(C(C)(F)F)nc1 (stereo partly drawn) [Example 116, methyl [(1S,2S)-2-(4-chlorophenyl)-2-[6-(1,1-difluoroethyl)pyridin-3-yl]-1-({2-[2-(2,2-dioxido-2-thia-1,7-diazabicyclo[4.3.1]dec-9-yl)ethyl]-3-fluorophenyl}carbamoyl)ethyl]carbamate]",18 nM
11,"COC(=O)N[C@H](C(=O)Nc1cccc(F)c1CC[C@H]1CN[C@@H]2CCCS(=O)(=O)N1C2)[C@@H](c1ccc(F)cc1)[C@H]1CC[C@H](OC)CC1 [Example 117, methyl [(1S)-2-[(2-{2-[(6R,9S)-2,2-dioxido-2-thia-1,7-diazabicyclo[4.3.1]dec-9-yl]ethyl}-3-fluorophenyl)amino]-1-{(R)-(4-fluorophenyl)[(1r,4R)-4-methoxycyclohexyl]methyl}-2-oxoethyl]carbamate]",5 nM
12,"CO[C@H]1CC[C@H]([C@H](c2ccc(F)cc2)[C@H](N)C(=O)Nc2cccc(F)c2CC[C@H]2CN[C@@H]3CCCS(=O)(=O)N2C3)CC1 [Example 118, (βR)-N-(2-{2-[(6R,9S)-2,2-dioxido-2-thia-1,7-diazabicyclo[4.3.1]dec-9-yl]ethyl}-3-fluorophenyl)-4-fluoro-β-[(1r,4R)-4-methoxycyclohexyl]-L-phenylalaninamide]",7.5 nM
13,"C[C@@H]1C[C@H]([C@H](c2ccc(Cl)cc2)[C@H](N)C(=O)Nc2cccc(F)c2CC[C@H]2CN[C@@H]3CCCS(=O)(=O)N2C3)C[C@H](C)O1 [Example 121, (βR)-4-chloro-β-[(2R,4r,6S)-2,6-dimethyltetrahydro-2H-pyran-4-yl]-N-(2-{2-[(6R,9S)-2,2-dioxido-2-thia-1,7-diazabicyclo[4.3.1]dec-9-yl]ethyl}-3-fluorophenyl)-L-phenylalaninamide]",5.7 nM
14,"COC(=O)N[C@H](C(=O)Nc1cccc(F)c1CCC1CNC2CCCS(=O)(=O)N1C2)[C@@H](c1ccc(Cl)cc1)c1ccnc(OC(C)C)c1 (stereo partly drawn) [Example 122, methyl {(1S,2S)-2-(4-chlorophenyl)-1-({2-[2-(2,2-dioxido-2-thia-1,7-diazabicyclo[4.3.1]dec-9-yl)ethyl]-3-fluorophenyl}carbamoyl)-2-[2-(1-methylethoxy)pyridin-4-yl]ethyl}carbamate]",6.7 nM
15,"COC(=O)N[C@H](C(=O)Nc1cccc(F)c1CC[C@H]1CN[C@@H]2CCCS(=O)(=O)N1C2)[C@]1(c2ccc(Cl)cc2)CC[C@H](OC)CC1 [Example 125, methyl {(1S)-1-[cis-1-(4-chlorophenyl)-4-methoxycyclohexyl]-2-[(2-{2-[(6R,9S)-2,2-dioxido-2-thia-1,7-diazabicyclo[4.3.1]dec-9-yl]ethyl}-3-fluorophenyl)amino]-2-oxoethyl}carbamate]",71 nM
16,"CO[C@H]1CC[C@@](c2ccc(Cl)cc2)([C@H](N)C(=O)Nc2cccc(F)c2CC[C@H]2CN[C@@H]3CCCS(=O)(=O)N2C3)CC1 [Example 126, (2S)-2-amino-2-[cis-1-(4-chlorophenyl)-4-methoxycyclohexyl]-N-(2-{2-[(6R,9S)-2,2-dioxido-2-thia-1,7-diazabicyclo[4.3.1]dec-9-yl]ethyl}-3-fluorophenyl)ethanamide]",610 nM
17,"CC1(C)C[C@@H]([C@H](c2ccc(Cl)cc2)[C@H](N)C(=O)N[C@H]2CCCC[C@@H]2CC[C@H]2CN[C@@H]3CCCS(=O)(=O)N2C3)CCO1 [Example 129, (βR)-4-chloro-β-[(4S)-2,2-dimethyltetrahydro-2H-pyran-4-yl]-N-[(1S,2R)-2-{2-[(6R,9S)-2,2-dioxido-2-thia-1,7-diazabicyclo[4.3.1]dec-9-yl]ethyl}cyclohexyl]-L-phenylalaninamide]",56 nM
18,"COC(=O)N[C@H](C(=O)N[C@H]1CCCC[C@@H]1CC[C@H]1CN[C@@H]2CCCS(=O)(=O)N1C2)[C@@H](c1ccc(Cl)cc1)[C@@H]1CCOC(C)(C)C1 [Example 131, methyl [(1S,2R)-2-(4-chlorophenyl)-2-[(4R)-2,2-dimethyltetrahydro-2H-pyran-4-yl]-1-{[(1S,2R)-2-{2-[(6R,9S)-2,2-dioxido-2-thia-1,7-diazabicyclo[4.3.1]dec-9-yl]ethyl}cyclohexyl]carbamoyl}ethyl]carbamate]",24 nM
19,"N[C@H](C(=O)Nc1cccc(F)c1CC[C@H]1CN[C@@H]2CCCS(=O)(=O)N1C2)[C@@H](c1ccc(F)cc1)c1cnc(C(F)(F)F)nc1 [Example 132, (βS)-N-(2-{2-[(6R,9S)-2,2-dioxido-2-thia-1,7-diazabicyclo[4.3.1]dec-9-yl]ethyl)-3-fluorophenyl)-4-fluoro-β-[2-(trifluoromethyl)pyrimidin-5-yl]-L-phenylalaninamide]",15 nM

# Same assay, conditions: inflection point (IP) of viral growth inhibition; MT4-GFP cells infected with HIV-1 H9IIIB; 50% normal human serum; mean of at least two independent experiments; read-out: Cell Based IP (50% NHS)
row,SMILES,EC50
1,"COC(=O)N[C@H](C(=O)Nc1cccc(F)c1CC[C@H]1CN[C@@H]2CCCS(=O)(=O)N1C2)[C@@H](c1ccc(Cl)cc1)C1C[C@@H](C)O[C@@H](C)C1 (stereo partly drawn) [Example 120, methyl {(1S,2R)-2-(4-chlorophenyl)-2-[(2R,4r,6S)-2,6-dimethyltetrahydro-2H-pyran-4-yl]-1-[(2-{2-[(6R,9S)-2,2-dioxido-2-thia-1,7-diazabicyclo[4.3.1]dec-9-yl]ethyl}-3-fluorophenyl)carbamoyl]ethyl}carbamate]",6.2 nM
